Molecular target: σ1-receptor (Cavia porcellus, UniProt Q60492)
Experiment: sigma-1 receptor binding assay, [3H](+)-pentazocine, brain membranes
Details: 1µM compound; [3H](+)-pentazocine 0.5 nM; guinea pig brain membranes; 37°C for 150 min; read-out: binding sigma-1 % Inh (1µM)
Experimental: Some representative compounds of the invention were tested for their activity as sigma (sigma-1) inhibitors. The following protocols were followed:
Brain membrane preparation and binding assays for the σ1-receptor were performed as described (DeHaven-Hudkins et al., 1992) with some modifications. In brief, guinea pig brains were homogenized in 10 vols. (w/v) of Tris-HCl 50 mM 0.32 M sucrose, pH 7.4, with a Kinematica Polytron PT 3000 at 15000 r.p.m. for 30 s. The homogenate was centrifuged at 1000g for 10 min at 4°C and the supernatants collected and centrifuged again at 48000g for 15 min at 4°C. The pellet was resuspended in 10 volumes of Tris-HCl buffer (50 mM, pH 7.4), incubated at 37°C for 30 min, and centrifuged at 48000g for 20 min at 4°C. Following this, the pellet was resuspended in fresh Tris-HCl buffer (50 mM, pH 7.4) and stored on ice until use.
Each assay tube contained 10 µL of [^3H](+)-pentazocine (final concentration of 0.5 nM), 900 µL of the tissue suspension to a final assay volume of 1 mL and a final tissue concentration of approximately 30 mg tissue net weight/mL. Non-specific binding was defined by addition of a final concentration of 1 µM haloperidol. All tubes were incubated at 37°C for 150 min before termination of the reaction by rapid filtration over Schleicher & Schuell GF 3362 glass fibre filters [previously soaked in a solution of 0,5% polyethylenimine for at least 1 h]. Filters were then washed with four times with 4 mL of cold Tris-HCl buffer (50 mM, pH 7.4). Following addition of scintillation cocktail, the samples were allowed to equilibrate overnight. The amount of bound radioactivity was determined by liquid scintillation spectrometry using a Wallac Winspectral 1414 liquid scintillation counter. Protein concentrations were determined by the method of Lowry et al. (1951).

Sequence of σ1-receptor (Q60492 whole entry): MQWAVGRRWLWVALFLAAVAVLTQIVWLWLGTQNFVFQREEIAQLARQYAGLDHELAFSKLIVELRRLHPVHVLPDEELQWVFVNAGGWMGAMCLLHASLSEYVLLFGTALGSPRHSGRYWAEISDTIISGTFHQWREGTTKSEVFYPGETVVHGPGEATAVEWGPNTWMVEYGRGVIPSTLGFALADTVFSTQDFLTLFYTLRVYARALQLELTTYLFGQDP

Row | inhibition at 1 µM [%] | SMILES
1 | 60 | [O-][N+]1(CCC2CCCc3c2cnn3-c2ccccc2)CCOCC1 (stereo not drawn) [Example 1, 4-(2-(1-phenyl-4,5,6,7-tetrahydro-1H-indazol-4-yl)ethyl)morpholine N-oxide]
2 | 76.4 | [O-][N+]1(CC[C@H]2CCCc3c2cnn3-c2ccccc2)CCOCC1 [Example 3, (R)-4-(2-(1-phenyl-4,5,6,7-tetrahydro-1H-indazol-4-yl)ethyl)morpholine N-oxide]
3 | 98 | [O-][N+]1(CC[C@@H]2CCCc3c2cnn3-c2ccccc2)CCOCC1 [Example 5, (S)-4-(2-(1-phenyl-4,5,6,7-tetrahydro-1H-indazol-4-yl)ethyl)morpholine N-oxide]

Source: patent EP2468728A1, “2-(1-phenyl-4,5,6,7-tetrahydro-1H-indazol-4-YL)ethylamine derivatives useful as sigma receptor inhibitors” (Laboratorios del. Dr. Esteve, S.A., priority 2010, dated 2012)
